The target in experiment [1] is T1, ATX (Rattus norvegicus, UniProt Q64610). The experiment is described as follows: Choline oxidase-coupled choline-release assay of LPC hydrolysis by ATX. The conditions noted are these: for inhibition at 100 µM: read-out: %Inhibition at 100 μM; for IC50 / Residual Activity (%): 20 nM ATX.
For experiment [2], the target named is T1, ATX. The experiment is described as follows: Competition with LPA allostery (LPA-mediated activation of ATX). Set-up: made in house. The conditions noted are these: inhibitor at concentrations close to or lower than IC50; 150 μM 18:1 LPC, 18:1 LPA, 20 nM ATX. It is filed as biochemical. As to the method:
The activation assays using LPA were performed in a similar way to those done for the inhibitors. In this case, LPA was dissolved in ethanol/H20 (1:1) and 0.01% TX-100 and was added to the reaction buffer. The presence of ethanol was taken into account, and controls in the absence of ATX and/or LPC were employed to correct the kinetic data. ATX was incubated for 30 min with different concentrations of inhibitors and subsequently added to the reaction buffer containing 150 μM 18:1 LPC and different starting concentrations of 18:1 LPA. The slopes were calculated from at least 60 min after the addition of ATX. The percentage of LPA-driven activation was normalized to ATX in the absence of LPA and inhibitors, which represented 100% activity. Last, the activation constant or AC50 was obtained from the following equation [drawing 2] 2

Experiment [3] concerns the target T1, ATX. The experiment is described as follows: Mechanistic studies: mode of inhibition and Ki from LPC titration. Format: biochemical. Set-up: made in house. How it is done: The biochemical studies of ATX lysoPLD activity were performed with ATX. Activity was measured by a coupled reaction with 1 U mL^–1 choline oxidase and 2 U mL^–1 horseradish peroxidase (HRP) and 2 mM homovanillic acid (HVA) (all from Sigma-Aldrich). For the assays, 14:0, 16:0, 18:1, and 20:0 LPC (Avanti Polar Lipids Inc.) were incubated with 20 nM ATX, reaching a final volume of 100 μL of the buffer, which contained 50 mM Tris, 0.01%, 50 mM CaCl2, Triton X-100, pH 7.4. Steady-state choline release was measured at 37 °C by HVA fluorescence at λex/λem = 320/460 nm in Corning 96- or 384-well OptiPlate (Sigma-Aldrich) and with a Pherastar plate reader (BMG Labtech). […] The resulting fluorescence intensity signal over time was used to model all inhibitor concentrations simultaneously using the following formula, where vmax and vmin were fitted for the minimum and maximum relative velocities, respectively, and ci corresponds to the inhibitor concentration for each assay[20] [drawing 1] 1
To statistically determine the chance of each type of inhibition, we calculated the α value in the partial mixed inhibition model (eq 5), where Part defines the partiality of the inhibition, and α > 1 or α = 1 correspond to competitive and non-competitive inhibition modes, respectively. Last, we utilized Akaike’s Information Criterion[42] to assess the significance of the analysis [drawing 5] 5

Another experiment has as its system BJeH fibroblasts. The experiment is described as follows: AKT and ERK phosphorylation by western blotting. Format: cell-based. To be noted: Homo sapiens, 0.25 h, 15 min. How it is done:
100,000 BJeH cells were seeded in 12-well tissue culture plates and allowed to grow for 24 h in DMEM (GIBCO, Life Technologies) containing 10% FCS (Thermo Scientific) and 100 U mL^–1 streptomycin/penicillin (GIBCO, Life Technologies). Next, they were washed twice with phosphate-buffered saline (PBS) and serum-starved O/N. ATX 20 nM was incubated with inhibitors for 30 min in a serum-free medium containing 0.05% (w/v) fatty acid-free BSA (total volume 1 mL). The medium from the 12-well plates was removed and replaced with 1 mL of the ATX–inhibitor mixture. Cells were stimulated for 15 min, the medium was removed, and plates were immediately frozen on dry ice and stored at −80 °C. For western blotting, cells were washed with cold PBS; lysed in RIPA buffer; supplemented with protease inhibitors (Pierce), 20 mM NaF and 1 mM orthovanadate; and spun down. The protein concentration was measured using a BCA protein assay kit (Pierce), and LDS sample buffer (NuPAGE, Invitrogen) and 1 mM dithiothreitol were added to the lysate. 20 μg of the total protein was loaded on sodium dodecyl sulfate–polyacrylamide gel electrophoresis pre-cast gradient gels (4–12% Nu-Page Bis-Tris, Invitrogen), followed by transfer to a nitrocellulose membrane. Non-specific protein binding was blocked by 5% BSA in PBS-Tween (0.1%); the primary antibodies were phospho-Akt (Ser473), catalogue number: D93, dilution: 1:1,000; phospho-ERK1/2 (Thr202/Tyr204), catalogue number: D13.14.4E, dilution: 1:2,000, from Cell Signaling Technology. They were incubated O/N at 4 °C in PBS–Tween with 5% BSA, containing 0.1% NaN3. Blots were then incubated for 1 h at room temperature with monoclonal anti-β-actin antibody, clone AC-15, dilution: 1:10,000, from Sigma, which was dissolved in PBS–Tween with 5% skimmed milk containing 0.1% NaN3. HRP-conjugated secondary antibodies [goat anti-mouse (Bio-Rad), catalogue number: 1721011; goat anti-rabbit (Pierce), catalogue number: 1858415] were incubated for 1 h at room temperature in PBS–Tween with 2.5% BSA and developed using an ECL Western blot reagent.
(In general: Immunoblotting shows a protein as a band on a membrane.)

Experiment [4] has as its system LPA1-HA-expressing HeLa-Flp-In cells. As to the kind of experiment: Confocal microscopy for LPA1 internalization. Format: cell-based, Human. The conditions noted are these: 1 μM 18:1 LPC, 20 nM ATX, 15 min. As to the method:
Human LPA1 cDNA was amplified by PCR to remove its stop codon and add the restriction sites for BamHI and XhoI, after which it was subcloned in an in-house produced pDNA5.1-HA vector. 0.2 μg of the resulting vector and 1.8 μg of pOG44 Flp-Recombinase Expression Vector (Invitrogen) were incubated with 6 μL of Fugene6 (Invitrogen) in 200 μL of OptiMEM (Gibco) for 30 min, after which the mix was added to previously produced HeLa-Flp-In cells.[43] Their medium was refreshed 24 h later, and selection with 1 μg/mL puromycin was started and maintained with resistant cells.
Serum-starved LPA1-HA-expressing HeLa-Flp-In cells cultured on 24 mm (#1,5) were treated with 1 μM LPC and 20 nM ATX in the presence or absence of 22 or 23 for 15 min in DMEM containing 0.05% fatty acid-free BSA. Subsequently, coverslips were washed and fixed with 4% PFA, permeabilized with 0.1% Triton X-100, and blocked with 2% BSA for 1 h. Incubation with anti-HA antibody (3F10 from Roche Diagnostics; 1:200) was done for 1 h, followed by incubation with donkey anti-rat Alexa Fluor 488-conjugated antibody (A-21208 from Invitrogen; 1:200) for 1 h at room temperature. For confocal microscopy, cells were washed with PBS, mounted with Immnuno-MountTM (Thermo Scientific), visualized on a LEICA TCS-SP5 confocal microscope (63× objective), and analyzed using ImageJ software.

By inhibition is commonly meant the drop in the measured response relative to a control, in per cent. What is called IC50 is the midpoint of a concentration-inhibition curve. A lower IC50 goes with higher potency. The Ki is the dissociation constant of the complex between target and ligand, obtained from inhibition or displacement. What is called EC50 is the concentration giving half of the maximal effect.

The structures appear in SMILES notation.

Consider `COc1ccc([B-](F)(F)F)cc1` [Compound 6], for which the inhibition at 100 µM on ATX [1] was found to be 57%.

As for `COc1ccc(B(O)O)cc1` [Compound 7], the inhibition at 100 µM on ATX [1] was 37%.

Regarding `C[C@H](CCC(=O)NCCCOc1ccc(S(N)(=O)=O)cc1)[C@H]1CC[C@H]2C3[C@@H](O)C[C@@H]4C[C@H](O)CC[C@]4(C)[C@H]3CC[C@]12C` (stereo partly drawn) [Compound 10], at ATX [1] (LPC hydrolysis assay), the IC50 amounted to 400 nM and the “Residual Activity (%)” value turned out to be 75%.

As for `C[C@H](CCC(=O)NCCOc1ccc(S(N)(=O)=O)cc1)[C@H]1CC[C@H]2C3[C@@H](O)C[C@@H]4C[C@H](O)CC[C@]4(C)[C@H]3CC[C@]12C` (stereo partly drawn) [Compound 11], on ATX [1] (LPC hydrolysis assay), the IC50 is greater than 10000 nM and the “Residual Activity (%)” value is recorded as 31%.

For the compound `C[C@H](CCC(=O)NCCCCOc1ccc(S(N)(=O)=O)cc1)[C@H]1CC[C@H]2C3[C@@H](O)C[C@@H]4C[C@H](O)CC[C@]4(C)[C@H]3CC[C@]12C` (stereo partly drawn) [Compound 12], on ATX [1] (LPC hydrolysis assay), the half-maximal inhibitory concentration (IC50) is greater than 10000 nM and the “Residual Activity (%)” value is 66%.

In the case of `C[C@H](CCC(=O)NCCOc1cccc(B2OC(C)(C)C(C)(C)O2)c1)[C@H]1CC[C@H]2C3[C@@H](O)C[C@@H]4C[C@H](O)CC[C@]4(C)[C@H]3CC[C@]12C` (stereo partly drawn) [Compound 13], at ATX [1] (LPC hydrolysis assay), the IC50 came out at 14000 nM and the “Residual Activity (%)” value was determined as 14.7%.

Consider `C[C@H](CCC(=O)NCCOc1ccc(B2OC(C)(C)C(C)(C)O2)cc1)[C@H]1CC[C@H]2C3[C@@H](O)C[C@@H]4C[C@H](O)CC[C@]4(C)[C@H]3CC[C@]12C` (stereo partly drawn) [Compound 14], for which, at ATX [1] (LPC hydrolysis assay), it took 1500 nM to reach half-maximal inhibition (IC50) and the “Residual Activity (%)” value is 1.4%. Besides, the “fold increase in potency over meta-substituted pinacol boronate 13” value at ATX [1] (ethyl-linked, para against meta) turned out to be 10 fold.

For the compound `C[C@H](CCC(=O)NCCCOc1cccc(B2OC(C)(C)C(C)(C)O2)c1)[C@H]1CC[C@H]2C3[C@@H](O)C[C@@H]4C[C@H](O)CC[C@]4(C)[C@H]3CC[C@]12C` (stereo partly drawn) [Compound 15], on ATX [1] (LPC hydrolysis assay), the half-maximal inhibitory concentration (IC50) worked out at 150 nM and the “Residual Activity (%)” value amounted to 1.7%.

In the case of `C[C@H](CCC(=O)NCCCOc1ccc(B2OC(C)(C)C(C)(C)O2)cc1)[C@H]1CC[C@H]2C3[C@@H](O)C[C@@H]4C[C@H](O)CC[C@]4(C)[C@H]3CC[C@]12C` (stereo partly drawn) [Compound 16], at ATX [1] (LPC hydrolysis assay), the IC50 was 70 nM and the “Residual Activity (%)” value was 0.3%.

Take `C[C@H](CCC(=O)NCCCOc1ccc([B-](F)(F)F)cc1)[C@H]1CC[C@H]2C3[C@@H](O)C[C@@H]4C[C@H](O)CC[C@]4(C)[C@H]3CC[C@]12C.[Na+]` (stereo partly drawn) [Compound 17]: on ATX [1] (LPC hydrolysis assay), it took 70 nM to reach half-maximal inhibition (IC50) and the “Residual Activity (%)” value turned out to be 1.1%.

Turning to `C[C@H](CCC(=O)NCCCOc1ccc(B(O)O)cc1)[C@H]1CC[C@H]2C3[C@@H](O)C[C@@H]4C[C@H](O)CC[C@]4(C)[C@H]3CC[C@]12C` (stereo partly drawn) [Compound 18], at ATX [1] (LPC hydrolysis assay), the IC50 worked out at 50 nM and the “Residual Activity (%)” value was 0.6%.

`C[C@H](CCC(=O)N1CCC(Oc2ccc(B3OC(C)(C)C(C)(C)O3)cc2)CC1)[C@H]1CC[C@H]2C3[C@@H](O)C[C@@H]4C[C@H](O)CC[C@]4(C)[C@H]3CC[C@]12C` (stereo partly drawn) [Compound 19]: on ATX [1] (LPC hydrolysis assay), the IC50 amounted to 80 nM and the “Residual Activity (%)” value is reported as 0%.

For `C[C@H](CCC(=O)N1CC[C@@H](Oc2ccc(B3OC(C)(C)C(C)(C)O3)cc2)C1)[C@H]1CC[C@H]2C3[C@@H](O)C[C@@H]4C[C@H](O)CC[C@]4(C)[C@H]3CC[C@]12C` (stereo partly drawn) [Compound 20], at ATX [1] (LPC hydrolysis assay), the IC50 amounted to 210 nM and the “Residual Activity (%)” value was determined as 8%.

As to `C[C@H](CCC(=O)N1CC[C@H](Oc2ccc(B3OC(C)(C)C(C)(C)O3)cc2)C1)[C@H]1CC[C@H]2C3[C@@H](O)C[C@@H]4C[C@H](O)CC[C@]4(C)[C@H]3CC[C@]12C` (stereo partly drawn) [Compound 21], on ATX [1] (LPC hydrolysis assay), half-maximal inhibition (IC50) required 200 nM and the “Residual Activity (%)” value is reported as 10%.

In the case of `C[C@H](CCC(=O)N1CCC(Oc2ccc([B-](F)(F)F)cc2)CC1)[C@H]1CC[C@H]2C3[C@@H](O)C[C@@H]4C[C@H](O)CC[C@]4(C)[C@H]3CC[C@]12C.[K+]` (stereo partly drawn) [Compound 22], the “LPA-mediated activation of ATX activity” value on ATX [2] is “dose-dependent decrease”. Also, the “percentage of competitive versus non-competitive inhibition” value on ATX [3] (Akaike's informative criteria) is given as 99%. Further, the mode of inhibition result on ATX [3] (LPC hydrolysis) was “competitive”. The compound further displayed a Ki on ATX [3] (LPC titration at increasing inhibitor concentrations, Michaelis-Menten nonlinear regression) of 24 ± 4 nM. For the same compound, the “α (partial mixed inhibition model)” value on ATX [3] (α > 1 competitive, α = 1 non-competitive) came out at 9.7. Moreover, the IC50 on ATX [1] (14:0 LPC, 150 μM LPC) came to 84 nM; against ATX [1] (16:0 LPC, 150 μM LPC) it was 72 nM; against ATX [1] (18:1 LPC, 150 μM LPC) it was 45 nM; against ATX [1] (20:0 LPC, 150 μM LPC), 32 nM; on ATX [1] (LPC hydrolysis assay) it was 50 nM. In addition, the “Residual Activity (%)” value on ATX [1] (14:0 LPC, 150 μM LPC) is 1%; at ATX [1] (16:0 LPC, 150 μM LPC), 12%; on ATX [1] (18:1 LPC, 150 μM LPC), 5%; at ATX [1] (20:0 LPC, 150 μM LPC, % of catalytic rate of inhibitor-free control), 49%; at ATX [1] (LPC hydrolysis assay), 0%. Further, the EC50 with BJeH fibroblasts (BJeH cells, 20 nM ATX, 1 μM 18:1 LPC, read-out: EC50 (P-AKT and P-ERK levels)) was roughly 100 nM. Also, the Emax with BJeH fibroblasts (BJeH, compared to uninhibited ATX incubated with LPC, read-out: reduction of maximal effective cell response (P-AKT and P-ERK)) is roughly 60%. Also, the “decrease of LPA1 internalization” value in experiment [4] is “approximately 75%”.

These data come from article PMC9059126, “Structure-Based Design of a Novel Class of Autotaxin Inhibitors Based on Endogenous Allosteric Modulators” (Journal of Medicinal Chemistry, 2022).
